From patent publication US20250161196A1, “Antioxidant Compositions” (THE BOOTS COMPANY PLC, priority 2022, published 2025)

Assay: Total Antioxidant Capacity (TAC) assay, Cell Biolabs kit, copper ion reduction, absorbance at 490 nm
Format: biochemical
Settings: for Total Antioxidant Capacity (TAC): absorbance 490 nm, triplicate; for TAC of the individual antioxidant agent: Table 1 / FIG. 1, single agent alone
Protocol: Total antioxidant capacity (TAC) was determined using a kit (Cell Biolabs, Inc) as follows; the test samples were diluted in water and a buffer to reach a final antioxidant agent to buffer ratio ranging from 1:1 to 1:1,000,000. 20 ul of test sample or control (ascorbic acid or green tea) were added to the wells of 96 well plate, followed by 180 μL of 1× Reaction Buffer (provided with the kit). The absorbance of the reaction mix in each well was measured at 490 nm to get an initial reading. 50 μL of the 1× Copper Ion Reagent (provided with the kit) were added to each well to initiate the reaction. The reaction was allowed to carry on for 5 minutes on an orbital shaker and 50 μL of 1× Stop Solution (provided with the kit) added to each well to terminate the reaction. The colour change was assessed using a plate reader at 490 nm.
The stronger the colour change at the end of the reaction, the higher the spectrophotometric value, and the higher the antioxidant capacity of the antioxidant agents.
21 antioxidant compounds were tested in triplicate at antioxidant: buffer ratios ranging from 1:1 to 1:1,000,000. […]

[1] = Antioxidant:Buffer 1:1 (concentration 1)
[2] = Antioxidant:Buffer 1:10 (concentration 0.1)
[3] = Antioxidant:Buffer 1:100 (concentration 0.01)

SMILES	Total Antioxidant Capacity (TAC) [1]	Total Antioxidant Capacity (TAC) [2]	Total Antioxidant Capacity (TAC) [3]	TAC of the individual antioxidant agent
COc1cc(/C=C/C(=O)O)ccc1O [Ferulic acid]	1.911	1.808	1.991	1.583
O=C1O[C@H]([C@@H](O)CO)C(O)=C1O [Ascorbic Acid (Control), Ascorbic Acid, reference compound]	2.6	1.6	0.7	–
COc1cc2c(cc1O)CCC(C)(C)O2 [Dimethylmethylmethoxy chromanol, Dimethylmethoxy chromanol]	1.839	1.807	1.824	1.671
